In ChEMBL document CHEMBL1201862, “PubChem BioAssay data set” (2004):
The source made the active and inactive calls.

Experiments:
[1] = biological target: DNA dC->dU-editing enzyme APOBEC-3A (Homo sapiens, UniProt P31941); assay: Dose Response confirmation of small molecule APOBEC3A DNA Deaminase Inhibitors via a fluorescence-based single-stranded DNA deaminase assay. [Related pubchem assays (depositor defined):AID493011, AID493024]; assay type: functional
[2] = biological target: DNA dC->dU-editing enzyme APOBEC-3G (Homo sapiens, UniProt Q9HC16); assay type: functional;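 further: Dose-response counterscreen measuring inhibition of APOBEC3G DNA deaminase activity, run while confirming APOBEC3A inhibitors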
DNA dC->dU-editing enzyme APOBEC-3G, sequence (Q9HC16 whole entry): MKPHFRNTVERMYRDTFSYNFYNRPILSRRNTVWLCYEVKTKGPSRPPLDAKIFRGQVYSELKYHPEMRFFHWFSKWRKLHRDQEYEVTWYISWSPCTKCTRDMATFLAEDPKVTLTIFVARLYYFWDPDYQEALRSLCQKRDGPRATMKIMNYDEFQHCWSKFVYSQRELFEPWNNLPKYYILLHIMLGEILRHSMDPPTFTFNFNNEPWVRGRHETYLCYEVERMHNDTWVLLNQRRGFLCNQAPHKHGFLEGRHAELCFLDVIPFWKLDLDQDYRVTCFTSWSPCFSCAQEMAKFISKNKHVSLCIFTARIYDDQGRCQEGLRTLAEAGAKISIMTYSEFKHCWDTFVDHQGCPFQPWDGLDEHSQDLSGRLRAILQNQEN

Coagulation factor XII = biological target: T1, Coagulation factor XII (Homo sapiens, UniProt P00748); assay: FXIIa inhibitor potency, concentration-response, biochemical (AID 716); assay type: functional
T1 sequence (P00748 whole entry): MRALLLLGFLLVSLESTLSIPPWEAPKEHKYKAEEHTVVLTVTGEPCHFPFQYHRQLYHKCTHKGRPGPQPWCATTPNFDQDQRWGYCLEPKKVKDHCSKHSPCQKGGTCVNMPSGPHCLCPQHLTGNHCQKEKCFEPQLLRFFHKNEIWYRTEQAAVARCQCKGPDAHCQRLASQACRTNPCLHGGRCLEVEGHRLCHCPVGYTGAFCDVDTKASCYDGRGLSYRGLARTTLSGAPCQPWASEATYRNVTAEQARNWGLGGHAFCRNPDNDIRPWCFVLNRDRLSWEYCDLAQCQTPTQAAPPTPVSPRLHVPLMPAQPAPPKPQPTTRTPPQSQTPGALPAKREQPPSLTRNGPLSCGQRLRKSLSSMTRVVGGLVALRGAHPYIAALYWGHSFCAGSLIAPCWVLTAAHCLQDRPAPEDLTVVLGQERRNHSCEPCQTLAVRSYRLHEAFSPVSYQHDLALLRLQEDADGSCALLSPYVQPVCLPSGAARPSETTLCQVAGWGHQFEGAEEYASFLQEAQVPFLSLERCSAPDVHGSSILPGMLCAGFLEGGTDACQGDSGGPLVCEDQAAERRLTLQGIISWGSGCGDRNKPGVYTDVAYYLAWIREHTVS

[3] = Jurkat T cell cytotoxicity, dose response, cytotoxicity control for P. falciparum gametocyte viability project, luminescence (AID 1117277); assay type: functional, cell-based;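 further: potency reflects loss of cellular ATP meaning fewer viable cells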
[4] = P. falciparum late gametocyte killing, dose response, luminescence (AID 1117278); assay type: functional, cell-based;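 further: gametocytes exposed to compound for 24 hours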
Caspase-6 = biological target: T2, Caspase-6 (Homo sapiens, UniProt P55212); assay: human caspase-6 inhibitors, dose response, biochemical, VEID-R110 fluorescence, cherry-pick (AID 720632)
T2 sequence (P55212 whole entry): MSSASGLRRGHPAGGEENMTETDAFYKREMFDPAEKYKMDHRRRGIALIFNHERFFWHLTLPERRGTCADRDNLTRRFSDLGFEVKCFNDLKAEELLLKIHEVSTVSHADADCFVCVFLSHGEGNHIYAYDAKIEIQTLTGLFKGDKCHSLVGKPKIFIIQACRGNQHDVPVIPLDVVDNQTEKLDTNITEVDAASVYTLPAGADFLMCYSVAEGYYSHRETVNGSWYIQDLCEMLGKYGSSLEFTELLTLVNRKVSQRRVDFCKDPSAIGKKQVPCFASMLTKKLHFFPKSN

Paired box protein Pax-8 = Paired box protein Pax-8 (Homo sapiens, UniProt Q06710); assay: inhibitors of PAX8-driven TPO luciferase reporter, dose response, RMG-I cells, cherry-pick (AID 687027); assay type: functional, cell-based;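 further: luciferase reporter driven by Pax8 target thyroperoxidase promoter measured by SteadyGlo luminescence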
Paired box protein Pax-8, sequence (Q06710 whole entry): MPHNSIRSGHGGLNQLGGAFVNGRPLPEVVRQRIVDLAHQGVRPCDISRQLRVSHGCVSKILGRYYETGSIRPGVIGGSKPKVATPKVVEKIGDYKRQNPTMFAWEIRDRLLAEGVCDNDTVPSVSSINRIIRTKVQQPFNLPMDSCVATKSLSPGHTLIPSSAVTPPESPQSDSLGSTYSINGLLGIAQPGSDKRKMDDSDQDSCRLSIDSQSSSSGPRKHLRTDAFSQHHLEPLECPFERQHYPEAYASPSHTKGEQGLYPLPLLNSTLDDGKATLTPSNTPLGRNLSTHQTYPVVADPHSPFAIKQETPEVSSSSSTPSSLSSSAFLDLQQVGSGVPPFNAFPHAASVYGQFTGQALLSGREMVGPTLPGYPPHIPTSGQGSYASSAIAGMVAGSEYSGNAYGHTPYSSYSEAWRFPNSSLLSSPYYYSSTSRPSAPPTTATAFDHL

[5] = cytotoxicity in OVCAR8 ovarian cancer cells, dose response, PAX8 project, cell-based, plate reader, dry powder samples (AID 743197); assay type: functional; settings: OVCAR-8
[6] = NIH:OVCAR-3 ovarian cancer cell cytotoxicity, dose response, PAX8 inhibitor project, plate reader, dry powder samples (AID 743044); assay type: functional, cell-based
[7] = biological target: T3, Microphthalmia-associated transcription factor (Homo sapiens, UniProt O75030); assay: TRPM1 promoter luciferase signal decrease, dose response, MITF inhibitor project, cell-based, SK-MEL-5, cherry-picked, set 3 (AID 493073); assay type: functional
T3 sequence (O75030 whole entry): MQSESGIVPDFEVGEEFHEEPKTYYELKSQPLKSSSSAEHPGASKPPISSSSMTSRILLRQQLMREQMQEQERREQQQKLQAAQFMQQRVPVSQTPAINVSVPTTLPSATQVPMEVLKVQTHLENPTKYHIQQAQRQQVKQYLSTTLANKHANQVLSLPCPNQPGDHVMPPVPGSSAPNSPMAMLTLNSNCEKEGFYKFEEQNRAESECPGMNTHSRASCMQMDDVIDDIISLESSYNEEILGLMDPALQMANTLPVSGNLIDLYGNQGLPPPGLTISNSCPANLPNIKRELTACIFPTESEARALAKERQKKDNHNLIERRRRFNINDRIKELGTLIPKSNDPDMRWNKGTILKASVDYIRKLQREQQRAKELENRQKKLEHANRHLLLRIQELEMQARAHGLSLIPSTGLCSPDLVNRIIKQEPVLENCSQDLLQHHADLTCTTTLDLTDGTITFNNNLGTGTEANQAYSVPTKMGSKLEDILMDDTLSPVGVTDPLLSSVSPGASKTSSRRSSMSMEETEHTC

Fatty acid synthase [8] = biological target: T4, Fatty acid synthase (Homo sapiens, UniProt P49327); assay: FAS thioesterase domain inhibitors, dose response, biochemical, kinetic fluorescence intensity (AID 624326); assay type: functional;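 further: rate of fluorescence rise from hydrolysis of a fluorogenic O-methyl fluorescein ester substrate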
T4 sequence (P49327 whole entry, the tested form may be a part): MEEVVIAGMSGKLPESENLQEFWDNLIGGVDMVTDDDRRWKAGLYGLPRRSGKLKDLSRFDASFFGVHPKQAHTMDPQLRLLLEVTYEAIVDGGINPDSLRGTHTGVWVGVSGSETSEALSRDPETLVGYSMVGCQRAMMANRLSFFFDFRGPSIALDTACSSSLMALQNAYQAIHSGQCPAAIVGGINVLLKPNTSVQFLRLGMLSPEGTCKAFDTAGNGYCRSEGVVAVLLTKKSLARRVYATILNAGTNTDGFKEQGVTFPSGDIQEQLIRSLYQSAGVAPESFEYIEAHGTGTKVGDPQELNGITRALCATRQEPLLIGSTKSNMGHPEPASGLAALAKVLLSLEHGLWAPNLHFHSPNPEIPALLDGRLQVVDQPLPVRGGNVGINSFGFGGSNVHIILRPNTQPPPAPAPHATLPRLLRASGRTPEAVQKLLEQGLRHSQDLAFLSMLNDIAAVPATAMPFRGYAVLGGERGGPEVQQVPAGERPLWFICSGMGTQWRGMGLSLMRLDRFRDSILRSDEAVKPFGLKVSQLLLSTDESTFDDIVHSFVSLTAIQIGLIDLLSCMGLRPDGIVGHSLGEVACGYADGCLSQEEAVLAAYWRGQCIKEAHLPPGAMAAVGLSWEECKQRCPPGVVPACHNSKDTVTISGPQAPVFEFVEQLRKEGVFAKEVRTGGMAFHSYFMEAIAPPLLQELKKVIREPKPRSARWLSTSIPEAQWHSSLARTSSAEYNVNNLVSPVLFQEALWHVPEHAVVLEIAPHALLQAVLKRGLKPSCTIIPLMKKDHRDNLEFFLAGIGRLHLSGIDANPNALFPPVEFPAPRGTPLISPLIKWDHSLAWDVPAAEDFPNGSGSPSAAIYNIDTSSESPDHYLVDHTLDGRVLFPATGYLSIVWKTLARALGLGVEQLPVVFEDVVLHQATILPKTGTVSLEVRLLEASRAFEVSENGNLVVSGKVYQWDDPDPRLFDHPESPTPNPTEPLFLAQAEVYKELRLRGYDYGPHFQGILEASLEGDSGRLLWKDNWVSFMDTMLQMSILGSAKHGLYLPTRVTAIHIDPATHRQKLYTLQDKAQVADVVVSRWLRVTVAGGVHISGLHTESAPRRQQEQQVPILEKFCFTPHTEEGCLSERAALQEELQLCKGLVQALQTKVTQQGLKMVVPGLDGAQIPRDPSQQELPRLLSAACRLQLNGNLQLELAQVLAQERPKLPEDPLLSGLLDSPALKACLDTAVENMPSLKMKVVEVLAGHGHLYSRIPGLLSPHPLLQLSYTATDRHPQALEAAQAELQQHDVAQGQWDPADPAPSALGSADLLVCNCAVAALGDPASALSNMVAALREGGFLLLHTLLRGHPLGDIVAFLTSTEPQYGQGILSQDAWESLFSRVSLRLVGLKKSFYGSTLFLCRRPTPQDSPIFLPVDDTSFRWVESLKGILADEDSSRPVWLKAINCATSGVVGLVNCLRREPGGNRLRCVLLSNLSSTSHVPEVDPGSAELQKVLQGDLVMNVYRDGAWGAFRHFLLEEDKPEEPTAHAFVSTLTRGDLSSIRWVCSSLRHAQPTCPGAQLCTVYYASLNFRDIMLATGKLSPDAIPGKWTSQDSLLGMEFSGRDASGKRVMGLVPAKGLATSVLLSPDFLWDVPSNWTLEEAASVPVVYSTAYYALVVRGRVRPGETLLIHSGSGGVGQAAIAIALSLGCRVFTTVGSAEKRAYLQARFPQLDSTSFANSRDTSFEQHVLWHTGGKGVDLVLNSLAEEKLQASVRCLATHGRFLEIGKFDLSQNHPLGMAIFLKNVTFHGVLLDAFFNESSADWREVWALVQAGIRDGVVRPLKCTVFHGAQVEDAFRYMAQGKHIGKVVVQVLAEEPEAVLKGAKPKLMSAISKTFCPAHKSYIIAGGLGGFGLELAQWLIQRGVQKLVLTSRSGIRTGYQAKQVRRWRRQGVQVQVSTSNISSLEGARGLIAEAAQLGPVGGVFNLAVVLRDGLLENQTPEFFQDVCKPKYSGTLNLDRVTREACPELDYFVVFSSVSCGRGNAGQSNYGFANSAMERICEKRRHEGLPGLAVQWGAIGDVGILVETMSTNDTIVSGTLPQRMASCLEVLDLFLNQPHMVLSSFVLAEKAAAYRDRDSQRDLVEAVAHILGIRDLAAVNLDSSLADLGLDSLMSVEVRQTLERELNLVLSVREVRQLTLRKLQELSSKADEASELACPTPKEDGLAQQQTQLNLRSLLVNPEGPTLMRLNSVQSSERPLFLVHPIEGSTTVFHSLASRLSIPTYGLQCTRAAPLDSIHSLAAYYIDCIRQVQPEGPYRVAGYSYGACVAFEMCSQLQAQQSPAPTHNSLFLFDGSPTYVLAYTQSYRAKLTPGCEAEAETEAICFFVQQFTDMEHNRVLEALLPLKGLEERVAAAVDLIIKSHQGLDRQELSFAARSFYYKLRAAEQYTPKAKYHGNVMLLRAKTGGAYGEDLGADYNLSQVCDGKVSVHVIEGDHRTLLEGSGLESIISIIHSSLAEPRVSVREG

Fatty acid synthase [9] = biological target: T4, Fatty acid synthase; assay: FAS thioesterase domain inhibitors, dose response, biochemical, endpoint fluorescence intensity, uHTS hits (AID 624327); assay type: functional;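 further: fluorescence from hydrolysis of an O-methyl fluorescein acyl ester substrate by the enzyme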
[10] = biological target: T5, COUP transcription factor 2 (Homo sapiens, UniProt P24468); assay: Luminescence-based cell-based high throughput dose response assay to identify inhibitors of COUP-TFII (NR2F2).; assay type: functional;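 further: HEK293 cells transiently cotransfected with COUP-TFII expression vector and reporter; luciferase reporter luminescence driven by COUP-TFII from the pX2-168 reporter plasmid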
T5 sequence (P24468 whole entry): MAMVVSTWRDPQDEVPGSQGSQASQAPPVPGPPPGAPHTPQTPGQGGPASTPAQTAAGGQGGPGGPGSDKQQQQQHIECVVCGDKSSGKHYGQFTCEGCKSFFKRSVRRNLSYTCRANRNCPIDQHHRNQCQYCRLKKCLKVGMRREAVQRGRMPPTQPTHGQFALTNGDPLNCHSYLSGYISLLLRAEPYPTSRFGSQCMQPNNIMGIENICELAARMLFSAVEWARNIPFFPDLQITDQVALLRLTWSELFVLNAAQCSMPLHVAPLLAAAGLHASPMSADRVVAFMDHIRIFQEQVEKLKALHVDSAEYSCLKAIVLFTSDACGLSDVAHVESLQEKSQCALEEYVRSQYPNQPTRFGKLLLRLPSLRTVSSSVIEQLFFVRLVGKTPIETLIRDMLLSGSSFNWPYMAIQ

Leucine aminopeptidase = biological target: T6, Leucine aminopeptidase (Plasmodium falciparum 3D7, UniProt Q8IL11); assay: P. falciparum M17LAP inhibitors, primary screen, biochemical, fluorogenic H-Leu-NHMec substrate, 1536-well (AID 1619); assay type: functional
T6 sequence (Q8IL11 whole entry): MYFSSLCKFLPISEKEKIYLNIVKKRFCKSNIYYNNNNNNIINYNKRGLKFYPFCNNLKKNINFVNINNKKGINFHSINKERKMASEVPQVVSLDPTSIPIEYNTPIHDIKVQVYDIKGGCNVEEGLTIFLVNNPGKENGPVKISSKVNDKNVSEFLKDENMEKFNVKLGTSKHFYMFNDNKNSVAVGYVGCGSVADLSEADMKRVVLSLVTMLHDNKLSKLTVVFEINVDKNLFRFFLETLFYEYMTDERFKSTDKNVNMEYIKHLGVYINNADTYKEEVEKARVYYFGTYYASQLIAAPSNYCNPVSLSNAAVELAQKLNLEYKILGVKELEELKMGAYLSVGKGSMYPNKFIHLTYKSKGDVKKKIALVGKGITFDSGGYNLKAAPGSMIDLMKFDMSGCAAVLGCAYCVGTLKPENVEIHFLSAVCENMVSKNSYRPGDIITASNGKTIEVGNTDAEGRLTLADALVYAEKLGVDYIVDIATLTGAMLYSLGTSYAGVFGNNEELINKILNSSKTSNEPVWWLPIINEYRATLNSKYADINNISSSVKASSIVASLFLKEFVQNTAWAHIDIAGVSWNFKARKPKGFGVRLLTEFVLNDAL

[11] = biological target: Melanin-concentrating hormone receptor 1 (Homo sapiens, UniProt Q99705); assay: Fluorescence-based counterscreen for antagonists of the G-protein coupled receptor 7 (GPR7): cell-based high throughput dose response assay to identify antagonists of the melanin-concentrating hormone receptor 1 (MCHR1).; assay type: functional
Melanin-concentrating hormone receptor 1, sequence (Q99705 whole entry): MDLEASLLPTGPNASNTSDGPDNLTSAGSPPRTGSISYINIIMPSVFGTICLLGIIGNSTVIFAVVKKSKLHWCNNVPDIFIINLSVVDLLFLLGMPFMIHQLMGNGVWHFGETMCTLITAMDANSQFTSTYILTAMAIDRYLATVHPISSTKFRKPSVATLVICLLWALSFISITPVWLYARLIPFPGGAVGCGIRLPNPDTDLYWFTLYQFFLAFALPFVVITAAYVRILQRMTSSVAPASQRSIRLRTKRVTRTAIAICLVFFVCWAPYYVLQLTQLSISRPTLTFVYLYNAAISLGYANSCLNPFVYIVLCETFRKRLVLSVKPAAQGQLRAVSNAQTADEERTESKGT

[12] = P. falciparum Dd2 growth inhibitors, dose response, SYBR Green, dry powder samples (AID 1159566); assay type: functional, cell-based;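 further: potency for growth inhibition with lower SYBR green DNA signal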
[13] = P. falciparum ATP4 D1247Y mutant growth inhibitors, dose response, NITD609-resistant line, SYBR Green, dry powder (AID 1159571); assay type: functional, cell-based;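 further: parasites synchronized at ring stage by sorbitol before testing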
[14] = P. falciparum Dd2 growth inhibitors, dose response, SYBR Green, cherry-picked samples (AID 1159567); assay type: functional, cell-based
[15] = P. falciparum 3D7-ScDHODH growth inhibitors, dose response, SYBR Green, dry powder samples (AID 1159570); assay type: functional, cell-based;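 further: parasite growth measured after 72 hours of compound exposure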

DNA dC->dU-editing enzyme APOBEC-3A, sequence (P31941 whole entry): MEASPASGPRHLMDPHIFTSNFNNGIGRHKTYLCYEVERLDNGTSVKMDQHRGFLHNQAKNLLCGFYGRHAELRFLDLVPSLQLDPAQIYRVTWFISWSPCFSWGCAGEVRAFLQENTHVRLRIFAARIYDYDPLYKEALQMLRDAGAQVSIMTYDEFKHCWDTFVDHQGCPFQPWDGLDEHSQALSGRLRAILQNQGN

For `CCN1CCN(c2ccc(S(=O)(=O)N3CCOCC3)cc2NC(=O)C(C)Oc2ccc(Cl)cc2)CC1` (stereo not drawn), the IC50 [1] was 9.56 µM (active) and the IC50 [2] was 14.7 µM (active).

With `O=C(c1ccco1)N1CCN(S(=O)(=O)c2ccc(Oc3ccccc3)cc2)CC1` the IC50 (Coagulation factor XII) was > 50 µM (inactive).

For `CC(C)CNC(=O)CCCc1ccccc1`, the IC50 [3] was > 83.4 µM (inactive) and the IC50 [4] was > 109 µM (inactive).

In the case of `CCOc1cc(N2CCOCC2)c(OCC)cc1NS(=O)(=O)c1cc(NC(C)=O)ccc1OC`, the AC50 (Caspase-6) is reported as 34.5 µM (active).

With `CC(=O)N1CCc2cc(Br)cc(S(=O)(=O)N3CCC(C(=O)O)CC3)c21` the AC50 (Caspase-6) was 30.4 µM (active).

For `Nn1c(SCC(=O)Nc2ccc3c(c2)OCCO3)nnc(CCC(=O)O)c1=O`, the IC50 [1] was 9.11 µM (active) and the IC50 [2] was 8.47 µM (active).

For `CC(=O)C[C@@H](O)CC(=O)[C@H]1OC(=O)CC/C=C\Cc2ccccc21`, the IC50 [3] was > 83.3 µM (inactive) and the IC50 [4] was > 109 µM (inactive).

In the case of `CN1CCCN(S(=O)(=O)c2ccccc2)CC1`, the IC50 [1] is reported as 4.85 µM (active) and the IC50 [2] is reported as 5.93 µM (active).

For `Cc1ccc(S(=O)(=O)Nc2ccc3c(c2)C(=O)N([C@H](C)CO)C[C@@H](C)[C@H](CN(C)C(=O)Nc2cccc4ccccc24)OCCCC[C@@H](C)O3)cc1`, the AC50 (Paired box protein Pax-8) was 5.78 µM (active), the AC50 [5] was > 70 µM (inactive) and the AC50 [6] was 42.1 µM (active).

With `CC(C)(C)c1ccc(/C=N/Nc2ccc(C(=O)O)cc2)cc1` the AC50 [7] was 6.03 µM (active), the IC50 (Fatty acid synthase [8]) was 8.76 µM (active) and the IC50 (Fatty acid synthase [9]) was 7.49 µM (active). The IC50 [10] was > 9.49 µM (active) and the IC50 (Leucine aminopeptidase) was 13.3 µM (active).

For `CCOC(=O)/C(CCCN(CC)CC)=N\O`, the IC50 [1] was 1.35 µM (active) and the IC50 [2] was 1.26 µM (active).

In the case of `Cc1cc([N+](=O)[O-])cc(C)c1OCC(=O)N/N=C/c1ccc(OC(=O)c2ccccc2)cc1`, the IC50 [11] is reported as > 43.8 µM (not active).

With `COc1ccc(C#Cc2ccc3c(c2)O[C@@H](CN(C)S(=O)(=O)c2ccccc2F)[C@@H](C)CN([C@@H](C)CO)S3(=O)=O)cc1` the AC50 [12] was 1.42 µM (active), the AC50 [13] was 1.93 µM (active) and the AC50 [14] was 2.65 µM (active). For the same molecule, the AC50 [15] was 1.71 µM (active).
